Like-named read-outs stand apart in the source and are kept apart here.
What was measured:
[1] = Determination of inhibitor concentration in mouse plasma after intraperitoneal and oral dosing; format: in vivo
Method: Blood collection was via ocular bleed at 0.5, 1, 4 hr with the final time point, 7 hour, via intracardiac puncture. The blood was centrifuged to collect plasma, which was then stored at −80° C. until analysis. Samples were prepared for analysis using an internal standard and sodium hydroxide. After vortexing, ethyl acetate was added and mixed for 15-20 minutes at ambient temperature. […] The samples were then analyzed via HPLC or LC-MS. Compound levels were quantitated by generating a standard curve of known compound concentration in mouse plasma.

[2] = test system: human umbilical vein endothelial cells (HUVEC); assay: HUVEC proliferation assay (VEGF-stimulated, MTT); format: cell-based; settings: for % inhibition of the proliferation of HUVEC / % inhibition: crude reaction mixtures; for % inhibition: Library III, HUVEC proliferation, nominal concentration of 0.5 nM; for IC50: Homo sapiens, HUVEC, + albumin, read-out: HUVEC + albumin IC50;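 for % inhibition of the proliferation of HUVEC: relative to VEGF-stimulated control minus starvation-medium baseline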
[3] = IP, 25 mg/kg, vehicle PEG400:H2O pH 2.3 30:70
[4] = PO, 50 mg/kg, vehicle PEG400:H2O pH 2.3 30:70
[5] = female, PO, 8 mg/kg, vehicle 0.5% CMC
[6] = female, PO, 8 mg/kg, vehicle 0.5% CMC, read-out: Cmax
[7] = female, PO, 8 mg/kg, vehicle 0.5% CMC, read-out: Cmin (7 hr conc.)
[8] = female, PO, 40 mg/kg, vehicle 0.5% CMC
[9] = female, PO, 40 mg/kg, vehicle 0.5% CMC, read-out: Cmax
[10] = female, PO, 40 mg/kg, vehicle 0.5% CMC, read-out: Cmin (7 hr conc.)
[11] = female, PO, 200 mg/kg, vehicle 0.5% CMC
[12] = female, PO, 200 mg/kg, vehicle 0.5% CMC, read-out: Cmax
[13] = female, PO, 200 mg/kg, vehicle 0.5% CMC, read-out: Cmin (7 hr conc.)
[14] = PO, 10 mg/kg, vehicle PEG400:H2O pH 2.3 60:40
[15] = PO, 25 mg/kg, vehicle PEG400:H2O pH 2.3 30:70
[16] = Library II, Y=S, 0.5 mM (column head; text: nominal 0.5 nM)
[17] = Library II, Y=S, 2 mM (column head; text: nominal 2 nM)
[18] = Library I, Y = CO, nominal concentration of 10 nM
[19] = Library I, Y = NH, nominal concentration of 10 nM
[20] = Library I, Y = O, nominal concentration of 10 nM

CC(C)NC(=O)c1ccccc1Sc1ccc2c(/C=C/c3ccccn3)n[nH]c2c1 [Example 35(b), 6-[2-(i-Propylcarbamoyl)phenylsulfanyl]-3-E-[2-(pyridin-2-yl)ethenyl]-1H-indazole]
AUClast [1, 3]: 2.84 µg·h/mL | plasma half-life (T1/2) [1, 3]: 0.8 h | AUClast [1, 4]: 4.048 µg·h/mL | plasma half-life (T1/2) [1, 4]: 0.8 h | concentration at 7 h ([1]; female, IP, 25 mg/kg, vehicle PEG400:H2O pH 2.3 30:70, read-out: Cmin (7 hr conc.)): 0.012 µg/mL | concentration at 7 h ([1]; female, PO, 50 mg/kg, vehicle PEG400:H2O pH 2.3 30:70, read-out: Cmin (7 hr conc.)): 0.013 µg/mL

Cc1cc(C(=O)Nc2cc(Nc3ccc4c(/C=C/c5ccccn5)n[nH]c4c3)ccc2F)n(C)n1.Cl [Example 59(d), 6-[N-(3-((1,3-Dimethyl-1H-pyrazol-5-yl)carboxamido)4-fluoro-phenyl)amino]-3-E-[2-(pyridin-2-yl)ethenyl]-1H-indazole Hydrochloride]
AUC(0-t) [1, 5]: > 24.7 µg·h/mL | Cmax [1, 6]: > 5 µg/mL | concentration at 7 h [1, 7]: 1.9 µg/mL | AUC(0-t) [1, 8]: > 32.3 µg·h/mL | Cmax [1, 9]: > 5 µg/mL | concentration at 7 h [1, 10]: 4.13 µg/mL | AUC(0-t) [1, 11]: > 123 µg·h/mL | Cmax [1, 12]: > 20 µg/mL | concentration at 7 h [1, 13]: 12.7 µg/mL

Cc1cccc(C(=O)Nc2cccc(Oc3ccc4c(/C=C/c5ccccc5)n[nH]c4c3)c2)c1 [5b]
AUClast [1, 14]: 0.061 µg·h/mL | plasma half-life (T1/2) [1, 14]: 3.1 h

CCn1nc(C)cc1C(=O)Nc1cccc(C(=O)c2ccc3c(/C=C/c4ccccn4)n[nH]c3c2)c1.Cl [Example 59(a), 6-[3-((1-Ethyl-3-methyl-1H-pyrazol-5-yl)carboxamido)benzoyl]-3-E-[2-(pyridin-2-yl)ethenyl]-1H-indazole Hydrochloride]
plasma half-life (T1/2) ([1]; PO, 8 mg/kg, vehicle 0.5% CMC): 1.5 h | plasma half-life (T1/2) ([1]; PO, 40 mg/kg, vehicle 0.5% CMC): 2.4 h | plasma half-life (T1/2) ([1]; PO, 200 mg/kg, vehicle 0.5% CMC): 9.4 h | AUC(0-t) [1, 5]: 7.71 µg·h/mL | Cmax [1, 6]: 2.49 µg/mL | concentration at 7 h [1, 7]: 0.122 µg/mL | AUC(0-t) ([1]; female, PO, 25 mg/kg, vehicle 0.5% CMC): 50.8 µg·h/mL | Cmax ([1]; female, PO, 25 mg/kg, vehicle 0.5% CMC, read-out: Cmax): 15.9 µg/mL | concentration at 7 h ([1]; female, PO, 25 mg/kg, vehicle 0.5% CMC, read-out: Cmin (7 hr conc.)): 1.21 µg/mL | AUC(0-t) [1, 8]: 57.2 µg·h/mL | Cmax [1, 9]: 13.8 µg/mL | concentration at 7 h [1, 10]: 1.88 µg/mL | AUC(0-t) [1, 11]: 156 µg·h/mL | Cmax [1, 12]: 30 µg/mL | concentration at 7 h [1, 13]: 12.1 µg/mL

CC(C)COC(=O)Nc1cccc(C(=O)c2ccc3c(/C=C/c4ccccn4)n[nH]c3c2)c1 [Example 41(y)]
AUClast [1, 15]: Blq | Cmax [1, 15]: Blq | Cmin (7 hr conc.) [1, 15]: blq | plasma half-life (T1/2) [1, 15]: blq

CCc1cc(C(=O)Nc2cccc(C(=O)c3ccc4c(/C=C/c5ccccn5)n[nH]c4c3)c2)n(C)n1 [Example 41(v), 6-[3-((3-Ethyl-1-methyl-1H-pyrazol-5-yl)carboxamido)benzoyl]-3-E-[2-(pyridin-2-yl)ethenyl]-1H-indazole]
AUClast [1, 15]: 10.949 µg·h/mL | plasma half-life (T1/2) [1, 15]: 4.4 h | concentration at 7 h ([1]; female, PO, 25 mg/kg, vehicle PEG400:H2O pH 2.3 30:70, read-out: Cmin (7 hr conc.)): 0.749 µg/mL

Nc1ccc(CCNC(=O)c2ccccc2Sc2ccc3c(/C=C/c4ccccn4)n[nH]c3c2)cc1
% inhibition of the proliferation of HUVEC [2, 16]: 32% | % inhibition of the proliferation of HUVEC [2, 17]: 31%

Cc1nnc(NC(=O)c2ccccc2Sc2ccc3c(/C=C/c4ccccn4)n[nH]c3c2)nc1C
% inhibition [2]: −20%

O=C(NC1CCCCC1)c1ccc2c(-c3nc4ccccc4[nH]3)n[nH]c2c1
% inhibition of the proliferation of HUVEC [2, 18]: 3% | % inhibition of the proliferation of HUVEC [2, 19]: −3% | % inhibition of the proliferation of HUVEC [2, 20]: 46%

NC(=O)c1ccc(NC(=O)c2ccccc2Sc2ccc3c(/C=C/c4ccccn4)n[nH]c3c2)cc1
% inhibition [2]: 2%

Cc1nnc(NC(=O)c2ccccc2Sc2ccc3c(/C=C/c4ccccn4)n[nH]c3c2)s1
% inhibition [2]: −20%

O=C(Nc1ccccc1CO)c1ccccc1Sc1ccc2c(/C=C/c3ccccn3)n[nH]c2c1
% inhibition [2]: 0%

O=C(NCCc1cccc(Cl)c1)c1ccccc1Sc1ccc2c(/C=C/c3ccccn3)n[nH]c2c1
% inhibition [2]: 0%

O=C(Nc1ccc2cn[nH]c2c1)c1ccccc1Sc1ccc2c(/C=C/c3ccccn3)n[nH]c2c1
% inhibition [2]: 7%

CC(=O)Nc1ccc(NC(=O)c2ccccc2Sc2ccc3c(/C=C/c4ccccn4)n[nH]c3c2)cc1
% inhibition [2]: −4%

O=C(NC1CCC(O)CC1)c1ccccc1Sc1ccc2c(C=Cc3ccccn3)n[nH]c2c1 (centres unmarked)
% inhibition of the proliferation of HUVEC [2, 16]: 23% | % inhibition of the proliferation of HUVEC [2, 17]: 6%

O=C(NC1CCCc2ccccc21)c1ccccc1Sc1ccc2c(/C=C/c3ccccn3)n[nH]c2c1 (centres unmarked)
% inhibition [2]: 1%

Cc1cc(NC(=O)c2ccccc2Sc2ccc3c(/C=C/c4ccccn4)n[nH]c3c2)on1
% inhibition of the proliferation of HUVEC [2, 16]: 26% | % inhibition of the proliferation of HUVEC [2, 17]: 31%

CC(CCCC(C)(C)O)NC(=O)c1ccccc1Sc1ccc2c(/C=C/c3ccccn3)n[nH]c2c1 (centres unmarked)
% inhibition [2]: 3%

COC(=O)c1ccc(C)c(NC(=O)c2ccccc2Sc2ccc3c(/C=C/c4ccccn4)n[nH]c3c2)c1
% inhibition [2]: −9%

O=C(N/N=C/c1ccccn1)c1ccccc1Sc1ccc2c(/C=C/c3ccccn3)n[nH]c2c1 [Example 36(b)]
IC50 [2]: > 0.03 µM

O=C(NCC1(O)CCCCC1)c1ccccc1Sc1ccc2c(/C=C/c3ccccn3)n[nH]c2c1 [drawing 688]
% inhibition of the proliferation of HUVEC [2, 16]: 26% | % inhibition of the proliferation of HUVEC [2, 17]: −19%

CCOCCCNC(=O)c1ccccc1Sc1ccc2c(/C=C/c3ccccn3)n[nH]c2c1
% inhibition of the proliferation of HUVEC [2, 16]: 44% | % inhibition of the proliferation of HUVEC [2, 17]: 97%

CCc1ccc(CCNC(=O)c2ccccc2Sc2ccc3c(/C=C/c4ccccn4)n[nH]c3c2)cc1
% inhibition [2]: −11%

O=C(Nc1ccc2ccccc2n1)c1ccccc1Sc1ccc2c(/C=C/c3ccccn3)n[nH]c2c1
% inhibition [2]: 18%

CC(C)(C)c1ccc(O)c(NC(=O)c2ccccc2Sc2ccc3c(/C=C/c4ccccn4)n[nH]c3c2)c1
% inhibition [2]: −3%

CCCCC(=O)NNC(=O)c1ccccc1Sc1ccc2c(/C=C/c3ccccn3)n[nH]c2c1
% inhibition of the proliferation of HUVEC [2, 16]: 40% | % inhibition of the proliferation of HUVEC [2, 17]: 94%

CC1C(=O)NCCN1C(=O)c1ccc2c(-c3nc4ccccc4[nH]3)n[nH]c2c1 (centres unmarked)
% inhibition of the proliferation of HUVEC [2, 18]: 12% | % inhibition of the proliferation of HUVEC [2, 19]: −3% | % inhibition of the proliferation of HUVEC [2, 20]: 40%

NC(=O)c1[nH]cnc1NC(=O)c1ccccc1Sc1ccc2c(/C=C/c3ccccn3)n[nH]c2c1
% inhibition [2]: −1%

O=C(Nc1ncc([N+](=O)[O-])s1)c1ccccc1Sc1ccc2c(/C=C/c3ccccn3)n[nH]c2c1
% inhibition [2]: −15%

N#Cc1nc(NC(=O)c2ccccc2Sc2ccc3c(/C=C/c4ccccn4)n[nH]c3c2)[nH]c1C#N
% inhibition [2]: −28%

NC(=O)NNC(=O)c1ccccc1Sc1ccc2c(/C=C/c3ccccn3)n[nH]c2c1
% inhibition of the proliferation of HUVEC [2, 16]: 19% | % inhibition of the proliferation of HUVEC [2, 17]: 5%

O=C(Nc1ccc2ncccc2c1)c1ccccc1Sc1ccc2c(/C=C/c3ccccn3)n[nH]c2c1
% inhibition [2]: 1%

N#CC(NC(=O)c1ccccc1Sc1ccc2c(/C=C/c3ccccn3)n[nH]c2c1)c1ccc(F)cc1 (centres unmarked)
% inhibition [2]: −20%

CCSc1nnc(NC(=O)c2ccccc2Sc2ccc3c(/C=C/c4ccccn4)n[nH]c3c2)s1
% inhibition [2]: 17%

CC(C)CC(C)NC(=O)c1ccccc1Sc1ccc2c(/C=C/c3ccccn3)n[nH]c2c1 (centres unmarked)
% inhibition of the proliferation of HUVEC [2, 16]: 55% | % inhibition of the proliferation of HUVEC [2, 17]: 50%

CNC(=O)c1cccc(F)c1Sc1ccc2c(/C=C/c3ccccn3)n[nH]c2c1 [Example 37(d), 6-[6-Fluoro-2-(methylcarbamoyl)phenylsulfanyl]-3-E-[2-(pyridin-2-yl)ethenyl]-1H-indazole]
IC50 [2]: > 0.1 µM

O=C(Nc1ccc(C(F)(F)F)cn1)c1ccccc1Sc1ccc2c(/C=C/c3ccccn3)n[nH]c2c1
% inhibition [2]: 20%

O=C(NC1CCOC1=O)c1ccccc1Sc1ccc2c(/C=C/c3ccccn3)n[nH]c2c1 (centres unmarked)
% inhibition [2]: 3%

O=C(Nc1nnn[nH]1)c1ccccc1Sc1ccc2c(/C=C/c3ccccn3)n[nH]c2c1
% inhibition of the proliferation of HUVEC [2, 16]: 21% | % inhibition of the proliferation of HUVEC [2, 17]: 64%

O=C(NCc1cccc2ccccc12)c1ccccc1Sc1ccc2c(/C=C/c3ccccn3)n[nH]c2c1
% inhibition [2]: 5%

CC(C)=CCC/C(C)=C/CNC(=O)c1ccccc1Sc1ccc2c(/C=C/c3ccccn3)n[nH]c2c1
% inhibition [2]: −22%

CNC(=O)c1ccccc1Sc1ccc2c(/C=C/c3ccccn3)n[nH]c2c1 [drawing 635]
% inhibition of the proliferation of HUVEC [2, 16]: 8% | % inhibition of the proliferation of HUVEC [2, 17]: 21%

O=C(c1ccc2c(-c3nc4ccccc4[nH]3)n[nH]c2c1)N1CCCC(O)C1 (centres unmarked)
% inhibition of the proliferation of HUVEC [2, 18]: 37% | % inhibition of the proliferation of HUVEC [2, 19]: −5% | % inhibition of the proliferation of HUVEC [2, 20]: 20%

CCCCN(CC)CCNC(=O)c1ccccc1Sc1ccc2c(/C=C/c3ccccn3)n[nH]c2c1
% inhibition of the proliferation of HUVEC [2, 16]: 2% | % inhibition of the proliferation of HUVEC [2, 17]: 6%

Reference: US6534524B1, “Indazole compounds and pharmaceutical compositions for inhibiting protein kinases, and methods for their use” (Agouron Pharmaceuticals, Inc., priority 1999, dated 2003)
